# Laboratory results from the supplement of paper PMC10307832.
# Experiments:
# Assay in all cases: relative viability (nuclei count vs DMSO), 5 days (fraction); higher = more cells survive
# Decitabine + Olaparib = compound: Nc1ncn([C@H]2C[C@H](O)[C@@H](CO)O2)c(=O)n1 [Decitabine] + O=C(c1cc(Cc2n[nH]c(=O)c3ccccc23)ccc1F)N1CCN(C(=O)C2CC2)CC1 [Olaparib] (partner 8 µM)
# In short: (§1)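 Relative viability was taken as the ratio of nuclei in treated wells to nuclei in vehicle wells. Lung cancer cell lines in 1536-well plates received compounds by pin tool one day after seeding, either one drug alone or a fixed anchor-drug dose plus five library-drug doses (not always all listed) in √10 steps. Nuclei were counted on 4× images after 5 days of treatment, and values are medians of duplicate plates.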
# Decitabine + Crizotinib = compound: Nc1ncn([C@H]2C[C@H](O)[C@@H](CO)O2)c(=O)n1 [Decitabine] + C[C@@H](Oc1cc(-c2cnn(C3CCNCC3)c2)cnc1N)c1c(Cl)ccc(F)c1Cl [Crizotinib] (partner 1 µM)
# In short: as §1
# Cediranib + OSI-027 = compound: COc1cc2c(Oc3ccc4[nH]c(C)cc4c3F)ncnc2cc1OCCCN1CCCC1 [Cediranib] + COc1cccc2cc(-c3nc([C@H]4CC[C@H](C(=O)O)CC4)n4ncnc(N)c34)[nH]c12 [OSI-027] (partner 0.5 µM)
# In short: as §1
# Halofuginone + OSI-027 = compound: O=C(C[C@H]1NCCC[C@@H]1O)Cn1cnc2cc(Br)c(Cl)cc2c1=O (racemic) [Halofuginone] + COc1cccc2cc(-c3nc([C@H]4CC[C@H](C(=O)O)CC4)n4ncnc(N)c34)[nH]c12 [OSI-027] (partner 0.5 µM)
# In short: as §1
cell line,measurement,setting,value
UMC-11,relative viability,Decitabine + Olaparib; first compound 0.04 µM,0.312
same,relative viability,Decitabine + Olaparib; first compound 0.1265 µM,0.301
same,relative viability,Decitabine + Olaparib; first compound 0.4 µM,0.273
same,relative viability,Decitabine + Olaparib; first compound 1.265 µM,0.218
same,relative viability,Decitabine + Olaparib; first compound 4 µM,0.2
same,relative viability,Decitabine + Crizotinib; first compound 0.04 µM,0.483
same,relative viability,Decitabine + Crizotinib; first compound 0.1265 µM,0.451
same,relative viability,Decitabine + Crizotinib; first compound 0.4 µM,0.398
same,relative viability,Decitabine + Crizotinib; first compound 1.265 µM,0.209
same,relative viability,Decitabine + Crizotinib; first compound 4 µM,0.168
same,relative viability,Cediranib + OSI-027; first compound 0.04 µM,0.461
same,relative viability,Cediranib + OSI-027; first compound 0.4 µM,0.473
same,relative viability,Cediranib + OSI-027; first compound 4 µM,0.488
same,relative viability,Halofuginone + OSI-027; first compound 0.001 µM,0.44
same,relative viability,Halofuginone + OSI-027; first compound 0.003162 µM,0.461
same,relative viability,Halofuginone + OSI-027; first compound 0.01 µM,0.467
same,relative viability,Halofuginone + OSI-027; first compound 0.03162 µM,0.46
same,relative viability,Halofuginone + OSI-027; first compound 0.1 µM,0.368
